Source: patent publication US20250059188A1, “ARYLSULPHONAMIDE COMPOUNDS” (Anaxis Pharma Pty Ltd, priority 2021, published 2025)

Columns and labels:
human RIPK3 = human RIPK3 (Homo sapiens (Human), UniProt Q9Y572); assay: KINOMEscan binding assay, human RIPK3; conditions: equilibrium dissociation constant
Summary of the method: (§1)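 Assay principle: test compound competes with immobilized bead ligand for kinase; kinase retained, then eluted, is counted by qPCR. Conditions were 1% DMSO final with 11 compound concentrations in 3-fold steps, 30,000 nM top for most. The Hill equation with slope −1 gave Kd.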

human MLKL (full length) = human MLKL (full length) (Homo sapiens (Human), UniProt Q8NB16); assay: KINOMEscan binding assay, human MLKL (full length); conditions: equilibrium dissociation constant
Summary of the method: as §1

[1] = tested on: U937 human histiocytic leukemia cell line; assay: Inhibition of TSQ induced necroptosis in U937 cells (CellTitre-Glo); conditions: Homo sapiens, U-937, TSQ cocktail (TNF, Smac mimetic, Q-VD-OPh), 48 hours, read-out: Inhibition of TSQ-induced necroptosis (IC50 cell-based assay)
Summary of the method: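 Necroptosis was induced with TNF-Fc (100 ng/ml), Smac mimetic (500 nM) and Q-VD-OPh (10 μM) in 20000 U937 cells/well exposed to a 10-point, 3-fold compound series (top 36 μM, 0.3% DMSO). ATP luminescence read after 48 h; 4-parameter fit gave IC50. Parallel TSQ-free wells assessed compound toxicity.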

U937 cells = assay: Counter screen: U937 cell viability without TSQ cocktail (off-target effect); set-up: species or system human; conditions: Homo sapiens, U-937, compound without TSQ cocktail, read-out: Off-target effect (IC50 cell-based assay)
Summary of the method: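 Off-target viability counter screen: compounds titrated 36 μM down 1:3 over 10 points (0.3% DMSO) on 20,000 U937 cells/well, no TNF/Smac mimetic/Q-VD-OPh added, 48 h incubation. ATP-based CellTiter-Glo luminescence, four-parameter logistic IC50.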

human RIPK1 = human RIPK1 (Homo sapiens (Human), UniProt Q13546); assay: KINOMEscan binding assay, human RIPK1; conditions: equilibrium dissociation constant
Summary of the method: as §1

Chain of human RIPK1 (Q13546 whole entry): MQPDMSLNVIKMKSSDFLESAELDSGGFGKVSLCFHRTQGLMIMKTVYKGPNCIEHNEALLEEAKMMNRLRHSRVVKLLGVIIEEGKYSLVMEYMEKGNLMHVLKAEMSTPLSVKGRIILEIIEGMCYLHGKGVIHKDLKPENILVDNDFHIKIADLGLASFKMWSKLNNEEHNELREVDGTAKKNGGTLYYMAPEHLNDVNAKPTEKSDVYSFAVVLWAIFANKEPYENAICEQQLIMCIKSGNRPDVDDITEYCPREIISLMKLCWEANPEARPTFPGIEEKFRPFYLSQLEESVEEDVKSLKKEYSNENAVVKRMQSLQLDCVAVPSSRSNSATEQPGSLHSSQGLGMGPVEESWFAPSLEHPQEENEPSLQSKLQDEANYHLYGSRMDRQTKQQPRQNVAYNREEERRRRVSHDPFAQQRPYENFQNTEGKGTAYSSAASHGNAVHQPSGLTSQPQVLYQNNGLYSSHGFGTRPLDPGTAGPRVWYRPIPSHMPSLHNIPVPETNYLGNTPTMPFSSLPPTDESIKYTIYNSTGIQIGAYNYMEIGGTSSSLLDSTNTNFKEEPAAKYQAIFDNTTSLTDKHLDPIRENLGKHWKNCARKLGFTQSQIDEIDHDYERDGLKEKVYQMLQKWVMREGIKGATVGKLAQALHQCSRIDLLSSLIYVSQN
Chain of human MLKL (full length) (Q8NB16 whole entry): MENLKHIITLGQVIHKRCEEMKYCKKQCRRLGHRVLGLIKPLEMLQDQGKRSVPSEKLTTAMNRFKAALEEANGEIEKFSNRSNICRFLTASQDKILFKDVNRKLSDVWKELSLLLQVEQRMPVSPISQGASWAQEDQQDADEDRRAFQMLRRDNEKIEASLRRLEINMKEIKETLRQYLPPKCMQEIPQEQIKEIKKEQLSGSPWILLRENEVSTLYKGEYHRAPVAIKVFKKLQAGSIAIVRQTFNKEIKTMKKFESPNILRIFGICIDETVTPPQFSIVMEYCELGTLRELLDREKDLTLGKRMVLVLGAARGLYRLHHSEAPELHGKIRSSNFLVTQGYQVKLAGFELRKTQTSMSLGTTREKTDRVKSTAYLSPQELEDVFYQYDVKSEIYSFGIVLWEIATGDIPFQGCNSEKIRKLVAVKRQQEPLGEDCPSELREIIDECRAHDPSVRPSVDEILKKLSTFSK
Chain of human RIPK3 (Q9Y572 whole entry): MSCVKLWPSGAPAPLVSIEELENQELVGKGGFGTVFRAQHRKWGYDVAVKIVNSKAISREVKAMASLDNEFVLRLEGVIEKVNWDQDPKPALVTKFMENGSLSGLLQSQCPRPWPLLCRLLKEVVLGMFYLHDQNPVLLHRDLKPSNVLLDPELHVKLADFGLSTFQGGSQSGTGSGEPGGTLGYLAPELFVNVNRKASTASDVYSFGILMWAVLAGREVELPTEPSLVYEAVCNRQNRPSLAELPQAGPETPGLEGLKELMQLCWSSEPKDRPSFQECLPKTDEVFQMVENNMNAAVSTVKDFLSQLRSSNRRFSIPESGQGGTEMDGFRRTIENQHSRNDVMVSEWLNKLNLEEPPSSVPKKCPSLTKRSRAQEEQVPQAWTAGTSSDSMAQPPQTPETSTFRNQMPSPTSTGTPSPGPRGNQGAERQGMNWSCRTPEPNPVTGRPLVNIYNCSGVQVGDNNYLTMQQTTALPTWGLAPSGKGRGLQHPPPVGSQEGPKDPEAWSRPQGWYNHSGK

| SMILES | Kd (human RIPK3) [nM] | Kd (human MLKL (full length)) [nM] | Kd (human RIPK1) [nM] | IC50 [1] [nM] | IC50 (U937 cells) [nM] |
| --- | --- | --- | --- | --- | --- |
| C[C@H](Oc1cc(-c2nn(C)c3c(-c4cnn(C5(C#N)CC5)c4)cnc(N)c23)ccc1NS(=O)(=O)C(F)F)c1ccc(F)cc1 [Compound 96, (S)-N-(4-(4-amino-7-(1-(1-cyanocyclopropyl)-1H-pyrazol-4-yl)-1-methyl-1H-pyrazolo[4,3-c]pyridin-3-yl)-2-(1-(4-fluorophenyl)ethoxy)phenyl)-1,1-difluoromethanesulfonamide] | > 10000 | < 1 | > 10000 | 10 to 1000 | > 10000 |
| C[C@H](Oc1cc(-c2nn(C)c3c(-c4cnc(N)nc4)cnc(N)c23)ccc1NS(=O)(=O)C(F)F)c1ccc(F)cc1 [Compound 108, (S)-N-(4-(4-amino-7-(2-aminopyrimidin-5-yl)-1-methyl-1H-pyrazolo[4,3-c]pyridin-3-yl)-2-(1-(4-fluorophenyl)ethoxy)phenyl)-1,1-difluoromethanesulfonamide] | > 10000 | < 1 | > 10000 | 10 to 1000 | > 10000 |
| C[C@H](Oc1cc(-c2nn(C)c3c(-c4cnn(C5CNC5)c4)cnc(N)c23)ccc1NS(=O)(=O)C(F)F)c1ccc(F)cc1 [Compound 94, (S)-N-(4-(4-amino-7-(1-(azetidin-3-yl)-1H-pyrazol-4-yl)-1-methyl-1H-pyrazolo[4,3-c]pyridin-3-yl)-2-(1-(4-fluorophenyl)ethoxy)phenyl)-1,1-difluoromethanesulfonamide] | > 10000 | < 1 | > 10000 | 10 to 1000 | > 10000 |

Second part, led by results:

| Kd (human RIPK3) [nM] | Kd (human MLKL (full length)) [nM] | Kd (human RIPK1) [nM] | SMILES | IC50 [1] [nM] | IC50 (U937 cells) [nM] |
| --- | --- | --- | --- | --- | --- |
| > 10000 | 1 to 100 | > 10000 | CNc1ncc(-n2cc(-c3cnc(N)c4c(-c5ccc(NS(=O)(=O)C(F)F)c(O[C@@H](C)c6ccc(F)cc6)c5)nn(C)c34)cn2)cn1 [Compound 138, (S)-N-(4-(4-amino-1-methyl-7-(1-(2-(methylamino)pyrimidin-5-yl)-1H-pyrazol-4-yl)-1H-pyrazolo[4,3-c]pyridin-3-yl)-2-(1-(4-fluorophenyl)ethoxy)phenyl)-1,1-difluoromethanesulfonamide] | 10 to 1000 | > 10000 |
| > 10000 | 1 to 100 | > 10000 | C[C@H](Oc1cc(-c2nn(C)c3c(-c4ccc5c(c4)CC(=O)N5C)cnc(N)c23)ccc1NS(=O)(=O)C(F)F)c1ccc(F)cc1 [Compound 165, (S)-N-(4-(4-amino-1-methyl-7-(1-methyl-2-oxoindolin-5-yl)-1H-pyrazolo[4,3-c]pyridin-3-yl)-2-(1-(4-fluorophenyl)ethoxy)phenyl)-1,1-difluoromethanesulfonamide] | 10 to 1000 | > 10000 |
| > 10000 | < 1 | > 10000 | C[C@H](Oc1cc(-c2nn(C)c3c(-c4cccnc4)cnc(N)c23)ccc1NS(=O)(=O)C(F)F)c1ccc(F)cc1 [Compound 25, (S)-N-(4-(4-amino-1-methyl-7-(pyridin-3-yl)-1H-pyrazolo[4,3-c]pyridin-3-yl)-2-(1-(4-fluorophenyl)ethoxy)phenyl)-1,1-difluoromethanesulfonamide] | 10 to 1000 | > 10000 |
| > 10000 | < 1 | > 10000 | C[C@H](Oc1cc(-c2nn(C)c3c(-c4cnn(C5COC5)c4)cnc(N)c23)ccc1NS(=O)(=O)C(F)F)c1ccc(F)cc1 [Compound 38, (S)-N-(4-(4-amino-1-methyl-7-(1-(oxetan-3-yl)-1H-pyrazol-4-yl)-1H-pyrazolo[4,3-c]pyridin-3-yl)-2-(1-(4-fluorophenyl)ethoxy)phenyl)-1,1-difluoromethanesulfonamide] | < 10 | > 10000 |
